Assay results: the NIST ThermoML archive (doi:10.1021/je060269j)
Several values for one entry are separate records, joined by “and”; a condition that tells them apart may be missing. Equal values may be shown once.

Details: Liquid, Flow apparatus with low residence time

O=S1(=O)CCCC1 [sulfolane]
Details | vapor or sublimation pressure [kPa]
560.2 K | 103.6
594.4 K | 203.9
626.3 K | 350.2
656.3 K | 556.8
685.1 K | 829.2
713.2 K | 1181
742 K | 1665
773.4 K | 2363
802.7 K | 3185
829 K | 4144

CC(O)CCO (stereo not given) [1,3-butanediol]
Details | Critical pressure [kPa] | Critical temperature [K] | vapor or sublimation pressure [kPa]
– | 5180 | 692.4 | –
481.4 K | – | – | 100.2
508.1 K | – | – | 209.6
537.8 K | – | – | 418.5
576 K | – | – | 898.4
614.7 K | – | – | 1719
646.7 K | – | – | 2774
662.5 K | – | – | 3462
676.7 K | – | – | 4158
688.2 K | – | – | 4840

OCCCOCCCO [4-oxa-1,7-heptanediol]
Details | Critical pressure [kPa] | Critical temperature [K] | vapor or sublimation pressure [kPa]
– | 3380 | 705.2 | –
505 K | – | – | 100.7
534.3 K | – | – | 208.2
564.2 K | – | – | 395.8
607.2 K | – | – | 854.3
649.8 K | – | – | 1631
689.9 K | – | – | 2779
699.1 K | – | – | 3123
703.4 K | – | – | 3296

NCCOCCO [2-(2-aminoethoxy)ethanol]
Details | Critical pressure [kPa] | Critical temperature [K] | vapor or sublimation pressure [kPa]
– | 4800 | 721.2 | –
500.9 K | – | – | 117.3
526.9 K | – | – | 225.2
564.9 K | – | – | 496.6
594.2 K | – | – | 842.6
625.9 K | – | – | 1395
653.9 K | – | – | 2085
685 K | – | – | 3130
716.5 K | – | – | 4521
719.4 K | – | – | 4729

O=C1CCCO1 [γ-butyrolactone]
Details | Critical pressure [kPa] | Critical temperature [K] | vapor or sublimation pressure [kPa]
– | 5100 | 732.5 | –
474.9 K | – | – | 93.29
501.8 K | – | – | 174.7
532.5 K | – | – | 325.8
562.6 K | – | – | 558.5
600 K | – | – | 1005
639 K | – | – | 1723
673.8 K | – | – | 2643
696.7 K | – | – | 3454
713.8 K | – | – | 4147
726.8 K | – | – | 4779
730.8 K | – | – | 5013

c1cocn1 [1,3-oxazole]
Details | Critical pressure [kPa] | Critical temperature [K] | vapor or sublimation pressure [kPa]
– | 6770 | 550.8 | –
479 K | – | – | 2424
494.6 K | – | – | 3116
514.9 K | – | – | 4146
535.5 K | – | – | 5523
547.4 K | – | – | 6492

CSSC [2,3-dithiabutane]
Details | Critical pressure [kPa] | Critical temperature [K] | vapor or sublimation pressure [kPa]
– | 5070 | 607.8 | –
466.3 K | – | – | 690
500.8 K | – | – | 1244
533.1 K | – | – | 2002
561 K | – | – | 2897
591.4 K | – | – | 4205
604.8 K | – | – | 4902
607.2 K | – | – | 5037

CC(C)c1ccc(C(C)C)cc1 [1,4-diisopropylbenzene]
Details | Critical pressure [kPa] | Critical temperature [K] | vapor or sublimation pressure
– | 2360 | 676.2 | –
518 K | – | – | 217.1 kPa
552.6 K | – | – | 416.3 kPa
596.8 K | – | – | 837.8 kPa
648.1 K | – | – | 1669 kPa and 1667 kPa
666.2 K | – | – | 2078 kPa
672.3 K | – | – | 2258 kPa
675.9 K | – | – | 2325 kPa
